Laboratory results as given in EP4778932A1 (priority 2023, dated 2025).

Assays:
Assay type in all cases: cell-based
OV90 = assay: cells; conditions: Homo sapiens, OV-90, 120 h; OV90 cells, five days co-incubation; read-out: IC50 (nM) OV90
Protocol: (§1) MDA-MB-231, OV90, and NCI-N87 cells at defined cell densities (1,500 cells per well, 80 µL volume) were seeded into 96-well plates. The cells were cultured overnight in a constant-temperature incubator (37°C, 5% CO2). Ecteinascidin derivative solutions at a maximum concentration of 2 mM were first prepared in DMSO, and serial 1:4 gradient dilutions were performed. 1 µL of each DMSO-prepared dilution was added to 99 µL of PBS containing 10% FBS per well and mixed thoroughly. The diluted solutions (2 µL of diluted solution and 18 µL of PBS containing 10% FBS per well) were then co-incubated with the cells (37°C, 5% CO2) for five days, after which CellTiter-Glo reagent (40 µL per well) was added, and […] values were measured using an i3x microplate reader.

MDA-MB-231 = assay: cells; conditions: Homo sapiens, 120 h; MDA-MB-231 cells, five days co-incubation; read-out: IC50 (nM) MDA-MB-231
Protocol: as §1

NCI-N87 = assay: cells; conditions: Homo sapiens, 120 h; NCI-N87 cells, five days co-incubation; read-out: IC50 (nM) NCI-N87
Protocol: as §1

[1] = tested on: MDA-MB-231, OV90, and NCI-N87 cells; assay: Tumor cell proliferation inhibition assay of novel ecteinascidin derivatives, summary over the three cell lines; conditions: compared with trabectedin and lurbinectedin
Protocol: as §1, with “The” for “MDA-MB-231, OV90, and NCI-N87 cells at defined cell densities (1,500 cells per well, 80 µL volume) were seeded into 96-well plates. The”

| SMILES | IC50 (OV90) [nM] | IC50 (MDA-MB-231) [nM] | IC50 (NCI-N87) [nM] | in-vitro cytotoxic activities [1] |
| --- | --- | --- | --- | --- |
| COc1cc2c(cc1N)[C@@H](O)CN[C@]21CS[C@@H]2c3c(OC(C)=O)c(C)c4c(c3[C@H](COC1=O)N1[C@@H]2[C@H]2c3c(cc(C)c(OC)c3O)C[C@@H]([C@@H]1C#N)N2C)OCO4 [P13] | < 1 | < 1 | < 1 | superior to or comparable to those of trabectedin and lurbinectedin |
| COc1c(C)cc2c(c1O)[C@@H]1[C@@H]3[C@@H]4SC[C@]5(NCCc6cc(N)c(F)cc65)C(=O)OC[C@@H](c5c6c(c(C)c(OC(C)=O)c54)OCO6)N3[C@@H](C#N)[C@H](C2)N1C [P1] | < 1 | < 1 | < 1 | superior to or comparable to those of trabectedin and lurbinectedin |
| COc1c(C)cc2c(c1O)[C@@H]1[C@@H]3[C@@H]4SC[C@]5(NC[C@H](O)c6cc(N)ccc65)C(=O)OC[C@@H](c5c6c(c(C)c(OC(C)=O)c54)OCO6)N3[C@@H](C#N)[C@H](C2)N1C [P10] | < 1 | < 1 | < 1 | superior to or comparable to those of trabectedin and lurbinectedin |
| COc1c(C)cc2c(c1O)[C@@H]1[C@@H]3[C@@H]4SC[C@]5(NC[C@@H](O)c6cc(N)ccc65)C(=O)OC[C@@H](c5c6c(c(C)c(OC(C)=O)c54)OCO6)N3[C@@H](C#N)[C@H](C2)N1C [P9] | < 1 | < 1 | < 1 | superior to or comparable to those of trabectedin and lurbinectedin |
| COc1c(C)cc2c(c1O)[C@@H]1[C@@H]3[C@@H]4SC[C@]5(NCCc6c5ccc(NC(=O)CO)c6OC)C(=O)OC[C@@H](c5c6c(c(C)c(OC(C)=O)c54)OCO6)N3[C@@H](C#N)[C@H](C2)N1C [P170] | < 1 | < 1 | < 1 | superior to or comparable to those of trabectedin and lurbinectedin |
| COc1cc2c(cc1N(C)C(=O)CO)CCN[C@]21CS[C@@H]2c3c(OC(C)=O)c(C)c4c(c3[C@H](COC1=O)N1[C@@H]2[C@H]2c3c(cc(C)c(OC)c3O)C[C@@H]([C@@H]1C#N)N2C)OCO4 [T17] | < 1 | < 1 | < 1 | superior to or comparable to those of trabectedin and lurbinectedin |
| COc1cc2c(cc1N)C1(CC1)CN[C@]21CS[C@@H]2c3c(OC(C)=O)c(C)c4c(c3[C@H](COC1=O)N1[C@@H]2[C@H]2c3c(cc(C)c(OC)c3O)C[C@@H]([C@@H]1C#N)N2C)OCO4 [P36] | < 1 | < 1 | < 1 | superior to or comparable to those of trabectedin and lurbinectedin |
| COc1cc2c(cc1NC(=O)CO)C(C)(C)CN[C@]21CS[C@@H]2c3c(OC(C)=O)c(C)c4c(c3[C@H](COC1=O)N1[C@@H]2[C@H]2c3c(cc(C)c(OC)c3O)C[C@@H]([C@@H]1C#N)N2C)OCO4 [P96] | < 1 | < 1 | < 1 | superior to or comparable to those of trabectedin and lurbinectedin |
| COc1cc2c(cc1N)C(OC)CN[C@]21CS[C@@H]2c3c(OC(C)=O)c(C)c4c(c3[C@H](COC1=O)N1[C@@H]2[C@H]2c3c(cc(C)c(OC)c3O)C[C@@H]([C@@H]1C#N)N2C)OCO4 (stereo partly shown) [T10] | < 1 | < 1 | < 1 | superior to or comparable to those of trabectedin and lurbinectedin |
| COc1cc2c(cc1N)[C@H](O)CN[C@]21CS[C@@H]2c3c(OC(C)=O)c(C)c4c(c3[C@H](COC1=O)N1[C@@H]2[C@H]2c3c(cc(C)c(OC)c3O)C[C@@H]([C@@H]1C#N)N2C)OCO4 [P12] | < 1 | < 1 | < 1 | superior to or comparable to those of trabectedin and lurbinectedin |
